# Values of other authors as cited in patent publication US6800300B1, “Method for treating autoimmune and alloimmune diseases” (Vasogen Ireland Limited, priority 2000, dated 2004).
# Where a name gives a salt, the structure may show the parent alone.
# What was measured:
# serum TNF = details: endotoxin-induced shock rat model
# [1] = tested on: TNF-α production by lymphocytes and macrophages
SMILES,serum TNF concentrations (serum TNF),production of TNF-α [1]
CC(=O)CCCCn1c(=O)c2c(ncn2C)n(C)c1=O [pentoxifylline],reduce serum TNF concentrations,–
"CC(=O)O[C@H]1C[C@@]2(C)[C@@H](C[C@@H](O)[C@H]3[C@@]4(C)CC[C@@H](O)[C@@H](C)[C@@H]4CC[C@@]32C)/C1=C(\CCC=C(C)C)C(=O)O [fusidic acid (sodiun salt), fusidic acid]",reduce serum TNF concentrations,–
"N=C(N)c1ccc(OCCCCCOc2ccc(C(=N)N)cc2)cc1 [pentamidine (isethionate), pentamidine]",reduce serum TNF concentrations,–
"C[C@H](Cc1ccccc1)Nc1ncnc2c1ncn2[C@@H]1O[C@H](CO)[C@@H](O)[C@H]1O [R-phenylisopropyladenosine (R-PIA), R-phenylisopropyladenosine]",reduce serum TNF concentrations,–
COc1ccc(C2CNC(=O)C2)cc1OC1CCCC1 (centres unmarked) [4-(3-cyclopentyloxy4-methoxyphenyl)-2-pyrrolidone],–,down-regulate the production of TNF-α
